For data set [1], the system named is A-549 (lung) cancer cell line. Kind of data set: Antiproliferative assay, A-549. The class given is cell-based, human. The following applies: Homo sapiens, A549; read-out: Antiproliferative activity IC50 ± SEM, A-549. The method, then:
(§1) Table 1 presents the median inhibitory concentration (IC50) and GI50 (mean IC50) for the four cancer cell lines.
(§2) Refer to Appendix A for additional information.
(§3) To explore the antiproliferative potential of compounds propidium iodide fluorescence assay was performed using different cell lines such as Panc-1 (pancreas cancer cell line) [Panc-1-CTC (RRID:CVCL_VQ69)], MCF-7 (breast cancer cell line) [MCF-7 (RRID:CVCL_0031)], HT-29 (colon cancer cell line) [HT-29 (RRID:CVCL_0320)] and A-549 (epithelial cancer cell line)[A-549 (RRID:CVCL_0023)], respectively. All cell lines were obtained from ATCC (American Type Cell Culture).
(§4) To calculate the total nuclear DNA, a fluorescent dye (propidium iodide, PI) is used which can attach to the DNA, thus offering a quick and precise technique. PI cannot pass through the cell membrane and its signal intensity can be considered as directly proportional to quantity of cellular DNA. Cells whose cell membranes are damaged or have changed permeability are counted as dead ones. The assay was performed by seeding the cells of different cell lines at a density of 3000-7500 cells/well (in 200 μl medium) in culture plates followed by incubation for 24 h at 37 °C in humidified 5% CO2 /95% air atmospheric conditions. The medium was removed; the compounds were added to the plates at 10 μM concentrations (in 0.1% DMSO) in triplicates, followed by incubation for 48 h. DMSO (0.1%) was used as control. After incubation, medium was removed followed by the addition of PI (25 μl, 50 μg/mL in water/medium) to each well of the plates. At -80 °C, the plates were allowed to freeze for 24 h, followed by thawing at 25 °C. A fluorometer (Polar-Star BMG Tech) was used to record the readings at excitation and emission wavelengths of 530 and 620 nm for each well. The percentage cytotoxicity of compounds was calculated using the following formula: […]

Data set [2] has as its system MCF-7 (breast) cancer cell line. The data set is described as follows: Antiproliferative assay, MCF-7. It is filed as cell-based, human. The following applies: Homo sapiens, MCF7; read-out: Antiproliferative activity IC50 ± SEM, MCF-7. The method, then:
as §1, §2, §3, §4

Data set [3] concerns Panc-1 (pancreatic) cancer cell line. The data set is described as follows: Antiproliferative assay, Panc-1. The class given is cell-based, human. Conditions: Homo sapiens, PANC-1; read-out: Antiproliferative activity IC50 ± SEM, Panc-1. How it is done: as §1, §2, §3, §4
For data set [4], the system named is HT-29 (colon) cancer cell line. Kind of data set: Antiproliferative assay, HT-29. It is filed as cell-based, human. Conditions: Homo sapiens, read-out: Antiproliferative activity IC50 ± SEM, HT-29. The method, then: as §1, §2, §3, §4
The subject of data set [5] is four cancer cell lines (A-549, MCF-7, Panc-1, HT-29). The data set is described as follows: Antiproliferative assay, mean over the four cancer cell lines (GI50). The class given is cell-based, human. Conditions: for IC50: Homo sapiens, mean IC50 of A-549, MCF-7, Panc-1, HT-29.
From the text: as §1, §2
All cell lines were obtained from ATCC (American Type Cell Culture). […]

A short description of data set [6]: Cell viability assay (MTT) on normal cell line. Conditions: human, MCF-10A normal mammary gland epithelial cells.
Method: The viability of the investigated compounds was assessed using the normal human mammary gland epithelial cell line MCF-10A. After four days of incubation on MCF-10A cells with 50 µM of each examined compound, cell viability was assessed using the MTT test[46]^,[47].
The viability of 7a–o was determined using the normal human mammary gland epithelial (MCF-10A) cell line^46,[47].
MTT assay was performed to investigate the effect of the synthesized compounds on mammary epithelial cells (MCF-10A). The cells were propagated in medium consisting of Ham's F-12 medium/ Dulbecco's modified Eagle's medium (DMEM) (1:1) supplemented with 10% foetal calf serum (GIBCO, UK), 2 mM glutamine, insulin (10 μg/mL), hydrocortisone (500 ng/mL) and epidermal growth factor (20 ng/mL). Trypsin ethylenediamine tetra acetic acid (EDTA) was used to passage the cells after every 2-3 days. 96-well flat-bottomed cell culture plates were used to seed the cells at a density of 10^4 cells mL^-1. The medium was aspirated from all the wells of culture plates after 24 h followed by the addition of synthesized compounds (in 200 μL medium to yield a final concentration of 0.1% (v/v) dimethyl sulfoxide) into individual wells of the plates. Four wells were designated to a single compound. The plates were allowed to incubate at 37°C for 96 h. Afterwards, the medium was aspirated and 3-[4,5-dimethylthiazol-2-yl]-2,5-diphenyltetrazolium bromide (MTT) (0.4 mg/mL) in medium was added to each well and subsequently incubated for 3 h. The medium was aspirated and 150 μL dimethyl sulfoxide (DMSO) was added to each well. The plates were vortexed followed by the measurement of absorbance at 540 nm on a microplate reader.
The target in another data set is EGFR (Homo sapiens, UniProt P00533). The data set is described as follows: EGFR-TK inhibitory assay. The following applies: EGFR inhibition IC50 ± SEM.
Chain of EGFR (P00533 669-1210): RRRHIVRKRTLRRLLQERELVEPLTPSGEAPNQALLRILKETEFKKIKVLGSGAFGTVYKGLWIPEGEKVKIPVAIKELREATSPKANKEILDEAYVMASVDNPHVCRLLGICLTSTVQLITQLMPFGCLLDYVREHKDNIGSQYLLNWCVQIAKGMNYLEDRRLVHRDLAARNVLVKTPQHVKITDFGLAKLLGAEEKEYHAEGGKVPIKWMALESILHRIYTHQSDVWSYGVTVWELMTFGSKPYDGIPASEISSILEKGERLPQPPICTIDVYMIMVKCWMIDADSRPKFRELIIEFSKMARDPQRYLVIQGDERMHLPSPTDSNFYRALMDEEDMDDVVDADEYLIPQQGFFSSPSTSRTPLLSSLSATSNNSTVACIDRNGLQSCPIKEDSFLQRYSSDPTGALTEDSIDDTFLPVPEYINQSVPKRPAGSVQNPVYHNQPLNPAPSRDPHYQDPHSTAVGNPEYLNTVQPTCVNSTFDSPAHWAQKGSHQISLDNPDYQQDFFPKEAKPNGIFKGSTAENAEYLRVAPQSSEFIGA
In a further data set the target is VEGFR-2 (Homo sapiens, UniProt P35968). Kind of data set: VEGFR-2 kinase inhibitory assay.
Chain of VEGFR-2 (P35968 20-1356): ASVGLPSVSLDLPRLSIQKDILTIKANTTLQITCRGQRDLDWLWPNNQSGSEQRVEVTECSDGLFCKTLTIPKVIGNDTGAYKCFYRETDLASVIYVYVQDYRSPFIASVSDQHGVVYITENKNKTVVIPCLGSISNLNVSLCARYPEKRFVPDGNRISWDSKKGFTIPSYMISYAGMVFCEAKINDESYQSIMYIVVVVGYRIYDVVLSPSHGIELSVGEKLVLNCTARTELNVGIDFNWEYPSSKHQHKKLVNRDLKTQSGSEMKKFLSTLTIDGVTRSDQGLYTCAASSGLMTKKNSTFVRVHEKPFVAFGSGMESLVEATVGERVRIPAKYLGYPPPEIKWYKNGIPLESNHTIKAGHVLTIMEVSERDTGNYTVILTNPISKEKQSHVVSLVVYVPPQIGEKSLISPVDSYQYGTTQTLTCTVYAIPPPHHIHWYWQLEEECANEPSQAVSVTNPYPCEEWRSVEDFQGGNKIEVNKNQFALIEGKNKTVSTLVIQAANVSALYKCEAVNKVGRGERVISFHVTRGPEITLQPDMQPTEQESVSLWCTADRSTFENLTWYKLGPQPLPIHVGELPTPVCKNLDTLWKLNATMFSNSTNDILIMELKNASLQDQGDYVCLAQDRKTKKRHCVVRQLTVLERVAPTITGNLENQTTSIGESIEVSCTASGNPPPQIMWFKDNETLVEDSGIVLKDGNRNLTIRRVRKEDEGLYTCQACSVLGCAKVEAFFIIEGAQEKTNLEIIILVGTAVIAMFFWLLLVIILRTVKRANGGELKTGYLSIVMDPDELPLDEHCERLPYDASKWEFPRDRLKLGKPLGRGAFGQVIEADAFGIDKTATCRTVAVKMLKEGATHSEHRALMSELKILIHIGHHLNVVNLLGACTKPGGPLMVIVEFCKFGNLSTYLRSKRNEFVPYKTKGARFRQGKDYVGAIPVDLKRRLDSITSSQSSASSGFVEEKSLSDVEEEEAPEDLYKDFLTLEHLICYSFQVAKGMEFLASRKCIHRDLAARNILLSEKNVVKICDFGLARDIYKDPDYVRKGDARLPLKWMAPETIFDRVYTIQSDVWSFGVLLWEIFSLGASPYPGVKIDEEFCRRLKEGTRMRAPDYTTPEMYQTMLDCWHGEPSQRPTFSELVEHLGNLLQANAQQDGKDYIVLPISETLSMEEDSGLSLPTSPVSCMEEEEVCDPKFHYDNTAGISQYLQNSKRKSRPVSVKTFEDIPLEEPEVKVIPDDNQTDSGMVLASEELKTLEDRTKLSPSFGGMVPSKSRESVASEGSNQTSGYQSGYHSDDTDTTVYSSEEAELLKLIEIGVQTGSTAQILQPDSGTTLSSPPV

Several values for one entry are separate records, joined by “and”; a condition that tells them apart may be missing. Identical values can stand only once.

Method for VEGFR-2: Prepare all the solutions using autoclaved, deionized water and analytical grade reagents. Prepare and store all the reagents at room temperature (unless indicated otherwise). […] The assays used an ULight-labeled peptide substrate and a Europium-W1024-labeled antiphosphotyrosine antibody. The VEGFR-2 was purchased from Carna Biosciences, Inc. (New York, USA). The 384-well plates were obtained from PerkinElmer. […] Negative control: 2.5 μL/well 4×substrate/ATP mixture and 7.5 μL 1×kinase assay buffer in 384-well plate well. […] After incubation at room temperature and dark for 60 min, 5 μL 4×stop solution was added to corresponding wells to react for 5 min and then 5 μL 4×detection mix was added to the corresponding wells of a 384-well plate. The mixture was centrifugally mixed and stayed for 60 min at room temperature for color development. The plate was read using an Envision plate reader. The inhibition rate (%) = (positive well reading-compound well reading)/(positive well reading-negative well reading)×100. The corresponding IC50 values were calculated using GraphPad Prism 5.0.

In the case of `CCS(=O)(=O)c1ccc2[nH]nc(C(=O)N/N=C/c3ccc(C#N)cc3)c2c1` [Compound 7a, (E)-N′-(4-Cyanobenzylidene)-5-(ethylsulfonyl)-1H-indazole-3-carbohydrazide], the IC50 in data set [1] amounted to 0.077 ± 0.006 µM; in data set [2] it was 0.079 ± 0.006 µM; in data set [3] it was 0.077 ± 0.006 µM; in data set [4] it was 0.078 ± 0.006 µM; in data set [5], 0.078 µM. For the same compound, in data set [5] (GI50 ratio to 7 g), the “Fold less potent than 7 g (GI50)” value is given as 2.1 fold. In addition, the “Fold less potent than 7i (GI50)” value in data set [5] (GI50 ratio to 7i) is on record as 2.4 fold. In addition, in data set [5] (GI50 ratio to 7 l), the “Fold less potent than 7 l (GI50)” value was determined as 1.9 fold. Also, in data set [6], the viability at 96 h, 50 µM worked out at 94%.
On to `CCS(=O)(=O)c1ccc2[nH]nc(C(=O)N/N=C/c3cccnc3)c2c1` [Compound 7b, (E)-5-(ethylsulfonyl)-N′-(pyridin-3-ylmethylene)-1H-indazole-3-carbohydrazide], for which the IC50 amounted to 0.047 ± 0.003 µM in data set [1]; 0.05 ± 0.004 µM in data set [2]; 0.048 ± 0.003 µM in data set [3]; 0.048 ± 0.003 µM in data set [4]; 0.048 µM in data set [5]. Further, the viability at 96 h, 50 µM in data set [6] turned out to be 92%.
As for `CCS(=O)(=O)c1ccc2[nH]nc(C(=O)N/N=C/c3ccc4c(cnn4C)c3)c2c1` [Compound 7c, (E)-5-(ethylsulfonyl)-N′-((1-methyl-1H-indazol-5-yl)methylene)-1H-indazole-3-carbohydrazide], the IC50 came out at 0.056 ± 0.004 µM in data set [1]; 0.059 ± 0.004 µM in data set [2]; 0.058 ± 0.004 µM in data set [3]; 0.058 ± 0.004 µM in data set [4]; 0.058 µM in data set [5]. Moreover, the viability at 96 h, 50 µM in data set [6] came to 91%.
As for `CCS(=O)(=O)c1ccc2[nH]nc(C(=O)N/N=C/c3ccc4ncccc4c3)c2c1` [Compound 7d, (E)-5-(ethylsulfonyl)-N′-(quinolin-6-ylmethylene)-1H-indazole-3-carbohydrazide], the IC50 was found to be 0.053 ± 0.004 µM in data set [1]; 0.055 ± 0.004 µM in data set [2]; 0.054 ± 0.004 µM in data set [3]; 0.054 ± 0.004 µM in data set [4]; 0.054 µM in data set [5]. In addition, the viability at 96 h, 50 µM in data set [6] was determined as 92%.
As for `CCS(=O)(=O)c1ccc2[nH]nc(C(=O)N/N=C/c3nccs3)c2c1` [Compound 7e, (E)-5-(ethylsulfonyl)-N′-(thiazol-2-ylmethylene)-1H-indazole-3-carbohydrazide], the IC50 in data set [1] is 0.058 ± 0.004 µM; in data set [2], 0.061 ± 0.005 µM; in data set [3] it was 0.06 ± 0.005 µM; in data set [4] it was 0.06 ± 0.005 µM; in data set [5], 0.06 µM. In addition, the “Fold less potent than 7j (GI50)” value in data set [5] (GI50 ratio to 7j) is on record as 2.3 fold. The compound also had a viability at 96 h, 50 µM in data set [6] of 94%.
Regarding `CCS(=O)(=O)c1ccc2[nH]nc(C(=O)N/N=C/c3ccc4c(ccn4C)c3)c2c1` [Compound 7f, (E)-5-(ethylsulfonyl)-N′-((1-methyl-1H-indol-5-yl)methylene)-1H-indazole-3-carbohydrazide], the IC50 was 0.071 ± 0.006 µM in data set [1]; 0.075 ± 0.006 µM in data set [2]; 0.073 ± 0.006 µM in data set [3]; 0.072 ± 0.006 µM in data set [4]; 0.073 µM in data set [5]. Besides, the viability at 96 h, 50 µM in data set [6] was 92%.
In the case of `CCS(=O)(=O)c1ccc2[nH]nc(C(=O)N/N=C/c3ccc(OC)c(O)c3)c2c1` [Compound 7g, (E)-5-(ethylsulfonyl)-N′-(3-hydroxy-4-methoxybenzylidene)-1H-indazole-3-carbohydrazide], the IC50 is 0.035 ± 0.002 µM in data set [1]; 0.038 ± 0.002 µM in data set [2]; 0.036 ± 0.002 µM in data set [3]; 0.036 ± 0.002 µM in data set [4]; 0.036 µM in data set [5]; 0.081 µM and 0.083 µM at EGFR. In addition, at VEGFR-2, the half-maximal inhibitory concentration (IC50) worked out at 0.039 ± 0.002 µM. Also, in data set [6], the viability at 96 h, 50 µM turned out to be 91%.
Take `CCS(=O)(=O)c1ccc2[nH]nc(C(=O)N/N=C/c3cncnc3)c2c1` [Compound 7h, (E)-5-(ethylsulfonyl)-N′-(pyrimidin-5-ylmethylene)-1H-indazole-3-carbohydrazide]: the 50% inhibitory concentration (IC50) stood at 0.067 ± 0.005 µM in data set [1]; 0.07 ± 0.006 µM in data set [2]; 0.068 ± 0.005 µM in data set [3]; 0.068 ± 0.005 µM in data set [4]; 0.068 µM in data set [5]. The same compound had a viability at 96 h, 50 µM in data set [6] of 93%.
As to `CCS(=O)(=O)c1ccc2[nH]nc(C(=O)N/N=C/c3ccc(O)cc3)c2c1` [Compound 7i, (E)-5-(ethylsulfonyl)-N′-(4-hydroxybenzylidene)-1H-indazole-3-carbohydrazide], the IC50 in data set [1] is 0.031 ± 0.002 µM; in data set [2], 0.034 ± 0.002 µM; in data set [3], 0.032 ± 0.002 µM; in data set [4], 0.032 ± 0.002 µM; in data set [5] it was 0.032 µM; on EGFR it was 0.083 µM and 0.081 µM. At VEGFR-2, the IC50 was found to be 0.036 ± 0.002 µM. Also, the viability at 96 h, 50 µM in data set [6] worked out at 92%.
For `CCS(=O)(=O)c1ccc2[nH]nc(C(=O)N/N=C/C3CC3)c2c1` [Compound 7m, (E)-N′-(cyclopropylmethylene)-5-(ethylsulfonyl)-1H-indazole-3-carbohydrazide], the IC50 in data set [1] is 0.049 ± 0.003 µM; in data set [2] it was 0.052 ± 0.004 µM; in data set [3], 0.05 ± 0.004 µM; in data set [4], 0.05 ± 0.004 µM; in data set [5], 0.05 µM. Further, in data set [6], the viability at 96 h, 50 µM worked out at 94%.
Turning to `CCS(=O)(=O)c1ccc2[nH]nc(C(=O)N/N=C/C3CCCC3)c2c1` [Compound 7n, (E)-N′-(cyclopentylmethylene)-5-(ethylsulfonyl)-1H-indazole-3-carbohydrazide], the 50% inhibitory concentration (IC50) was determined as 0.063 ± 0.005 µM in data set [1]; 0.066 ± 0.005 µM in data set [2]; 0.064 ± 0.005 µM in data set [3]; 0.064 ± 0.005 µM in data set [4]; 0.064 µM in data set [5]. The viability at 96 h, 50 µM in data set [6] stood at 90%.
Regarding `C#Cc1cccc(Nc2ncnc3cc(OCCOC)c(OCCOC)cc23)c1` [Erlotinib, reference compound], the IC50 in data set [1] was 0.03 ± 0.003 µM; in data set [2], 0.04 ± 0.003 µM; in data set [3] it was 0.03 ± 0.003 µM; in data set [4] it was 0.03 ± 0.003 µM.

In general, IC50 refers to the point on the concentration scale where inhibition reaches its midpoint. In general, viability refers to a read-out of living cells in per cent, often relative to untreated cells. The low end stands for more harm to the cells, the high end for less harm to the cells.

Source of the values: publication PMC12897534, “Design, synthesis, and antiproliferative activity of new 5-ethylsulfonyl-indazole-3-carbohydrazides as dual EGFR/VEGFR-2 kinases inhibitors” (Journal of Enzyme Inhibition and Medicinal Chemistry, 2025).
